Common to all, as to assay type: cell-based
Experiment [1] concerns influenza virus H1N1 in MDCK cells. The note with it: MOI 0.005, 48 hours, neuraminidase activity, read-out: NA_VIR_H1N1 EC50. An excerpt:
(§1) Influenza Virus Neuraminidase Assay (NA Assay)

For experiment [2], the system named is influenza virus H3N2 in MDCK cells. The note with it: MOI 0.005, 48 hours, neuraminidase activity, read-out: NA_VIR_H3N2 EC50.
Description: as §1

The subject of experiment [3] is influenza A virus minigenome (PB2, PB1, PA, NP) RNP_Alaska in 293T cells. Briefly: cells. The note with it: HEK-293T, 48 h, read-out: RNP_Alaska EC50.
The subject of experiment [4] is influenza A virus minigenome (PB2, PB1, PA, NP) RNP_CAL in 293T cells. Briefly: cells. The note with it: HEK-293T, 48 h, read-out: RNP_CAL_EC50.
The subject of experiment [5] is influenza virus minigenome (PB2, PB1, PA, NP) RNP_Hubei in 293T cells. Briefly: cells. The note with it: unidentified influenza virus, HEK-293T, 48 h, read-out: RNP_Hubei EC50.

Take `O=c1ccn2c(c1O)-c1ncc(C(F)(F)F)n1C[C@@H]2C(c1ccccc1)c1ccccc1` [Example 58, (S)-6-benzhydryl-11-hydroxy-3-(trifluoromethyl)-5H-imidazo[1,2-a]pyrido[2,1-c]pyrazin-10(6H)-one]: the EC50 in experiment [1] was 0.2 µM.
On to `O=c1ccn2c(c1O)-c1ncc(CN3CCOCC3)n1C[C@@H]2C(c1ccccc1)c1ccccc1` [Example 67, (S)-6-benzhydryl-11-hydroxy-3-(morpholinomethyl)-5,6-dihydro-10H-imidazo[1,2-a]pyrido[2,1-c]pyrazin-10-one], for which the EC50 in experiment [2] came out at 10 µM.
For the molecule `CNC(=O)c1cnc2n1C[C@H](C(c1ccccc1)c1ccccc1)n1ccc(=O)c(O)c1-2` [Example 69, (S)-6-benzhydryl-11-hydroxy-N-methyl-10-oxo-5,6-dihydro-10H-imidazo[1,2-a]pyrido[2,1-c]pyrazine-3-carboxamide], the EC50 in experiment [2] was above 50 µM.
Same read-out and setting: the result for `COCCNC(=O)c1cnc2n1C[C@H](C(c1ccccc1)c1ccccc1)n1ccc(=O)c(O)c1-2` [Example 71, (S)-6-benzhydryl-11-hydroxy-N-(2-methoxyethyl)-10-oxo-5,6-dihydro-10H-imidazo[1,2-a]pyrido[2,1-c]pyrazine-3-carboxamide] reads above 50 µM.
On to `Cn1cnc2c1CN(C(c1ccccc1)c1ccccc1)n1ccc(=O)c(O)c1-2` [Example 82, 5-benzhydryl-10-hydroxy-3-methyl-4,5-dihydroimidazo[4,5-d]pyrido[1,2-b]pyridazin-9(3H)-one], for which the results for the EC50 in experiment [1] and in experiment [2] were 1 µM and 4 µM, respectively.
`CC(C)CC(=O)Oc1c2n(ncc1=O)[C@@H](C(c1ccc(F)cc1)c1ccc(F)cc1)Cn1ccnc1-2` [Example 87, (S)-6-(bis(4-fluorophenyl)methyl)-10-oxo-5,6-dihydro-10H-imidazo[2′,1′:3,4]pyrazino[1,2-b]pyridazin-11-yl 3-methylbutanoate]: the EC50 in experiment [3] was 0.027 µM; in experiment [4], 0.021 µM; in experiment [5] it was 0.043 µM.
Consider `COC(=O)OCOc1c2n(ncc1=O)[C@@H](C(c1ccc(F)cc1)c1ccc(F)cc1)Cn1ccnc1-2` [Example 88, (S)-((6-(bis(4-fluorophenyl)methyl)-10-oxo-5,6-dihydro-10H-imidazo[2′,1′:3,4]pyrazino[1,2-b]pyridazin-11-yl)oxy)methyl methyl Carbonate], for which the EC50 in experiment [3] was 0.032 µM; in experiment [4], 0.042 µM; in experiment [5] it was 0.089 µM.

The values above are taken from US11453677B2 (priority 2016, dated 2022).
